Experimental data: patent US20100092429A1, “Composition” (Danisco A/S, priority 2006, published 2010)
Where two headings read alike, the source gives them in different places.

How the values were obtained:
[1] = tested on: Lactobacilli and S. thermophilus; assay: Growth on single carbohydrates, summary for Lactobacilli and S. thermophilus; format: cell-based; details: summary in words of Tables 7 and 8
[2] = tested on: Bifidobacterium lactis BI-04; format: cell-based; details: 1 w/v-% carbohydrate, 37° C.

Which “fermentation of the carbohydrate by Lactobacilli and S. thermophilus” value [1] does the source give for OC[C@H]1O[C@H](O)[C@H](O)[C@@H](O)[C@@H]1O [Glucose, Alpha-D-Glucose] here?
The value was “all these bacteria fermented with glucose”.

And the “absorbance (OD 600 nm)” value ([2]; Table 3 test, time 0 h)?
The value was 0.345.

What about the “absorbance (OD 600 nm)” value ([2]; Table 3 test, time 0.5 h) of the same molecule?
Its value is 0.3508.

And the “absorbance (OD 600 nm)” value ([2]; Table 3 test, time 1 h)?
Its value is 0.3557.

And the “absorbance (OD 600 nm)” value ([2]; Table 3 test, time 1.5 h)?
Its value is 0.3612.

What about the “absorbance (OD 600 nm)” value ([2]; Table 3 test, time 2 h) of the same molecule?
Its value is 0.366.

And the “absorbance (OD 600 nm)” value ([2]; Table 3 test, time 2.5 h)?
The value was 0.3717.

What about the “absorbance (OD 600 nm)” value ([2]; Table 3 test, time 3 h) of the same molecule?
Its value is 0.3794.

And the “absorbance (OD 600 nm)” value ([2]; Table 3 test, time 3.5 h)?
The value was 0.3884.

What about the “absorbance (OD 600 nm)” value ([2]; Table 3 test, time 4 h) of the same molecule?
The value was 0.4001.

What about the “absorbance (OD 600 nm)” value ([2]; Table 3 test, time 4.5 h) of the same molecule?
Its value is 0.4149.

And the “absorbance (OD 600 nm)” value ([2]; Table 3 test, time 5 h)?
The value was 0.4363.

What about the “absorbance (OD 600 nm)” value ([2]; Table 3 test, time 5.5 h) of the same molecule?
Its value is 0.4576.

What about the “absorbance (OD 600 nm)” value ([2]; Table 3 test, time 6 h) of the same molecule?
Its value is 0.4843.

What about the “absorbance (OD 600 nm)” value ([2]; Table 3 test, time 6.5 h) of the same molecule?
The value was 0.5156.

What about the “absorbance (OD 600 nm)” value ([2]; Table 3 test, time 7 h) of the same molecule?
Its value is 0.549.

And the “absorbance (OD 600 nm)” value ([2]; Table 3 test, time 7.5 h)?
The value was 0.5855.

And the “absorbance (OD 600 nm)” value ([2]; Table 3 test, time 8 h)?
The value was 0.6269.

And the “absorbance (OD 600 nm)” value ([2]; Table 3 test, time 8.5 h)?
Its value is 0.6688.

And the “absorbance (OD 600 nm)” value ([2]; Table 3 test, time 9 h)?
The value was 0.7126.

And the “absorbance (OD 600 nm)” value ([2]; Table 3 test, time 9.5 h)?
The value was 0.7528.

And the “absorbance (OD 600 nm)” value ([2]; Table 3 test, time 10 h)?
Its value is 0.7957.

What about the “absorbance (OD 600 nm)” value ([2]; Table 3 test, time 10.5 h) of the same molecule?
The value was 0.8301.

And the “absorbance (OD 600 nm)” value ([2]; Table 3 test, time 11 h)?
The value was 0.8645.

And the “absorbance (OD 600 nm)” value ([2]; Table 3 test, time 11.5 h)?
Its value is 0.897.

What about the “absorbance (OD 600 nm)” value ([2]; Table 3 test, time 12 h) of the same molecule?
Its value is 0.927.

What about the “absorbance (OD 600 nm)” value ([2]; Table 3 test, time 12.5 h) of the same molecule?
Its value is 0.9517.

And the “absorbance (OD 600 nm)” value ([2]; Table 3 test, time 13 h)?
Its value is 0.9725.

What about the “absorbance (OD 600 nm)” value ([2]; Table 3 test, time 13.5 h) of the same molecule?
The value was 0.9899.

What about the “absorbance (OD 600 nm)” value ([2]; Table 3 test, time 14 h) of the same molecule?
Its value is 1.0031.

And the “absorbance (OD 600 nm)” value ([2]; Table 3 test, time 14.5 h)?
The value was 1.0267.

What about the “absorbance (OD 600 nm)” value ([2]; Table 3 test, time 15 h) of the same molecule?
The value was 1.0406.

And the “absorbance (OD 600 nm)” value ([2]; Table 3 test, time 15.5 h)?
The value was 1.05.

What about the “absorbance (OD 600 nm)” value ([2]; Table 3 test, time 16 h) of the same molecule?
The value was 1.063.

What about the “absorbance (OD 600 nm)” value ([2]; Table 3 test, time 16.5 h) of the same molecule?
Its value is 1.0769.

And the “absorbance (OD 600 nm)” value ([2]; Table 3 test, time 17 h)?
The value was 1.0841.

And the “absorbance (OD 600 nm)” value ([2]; Table 3 test, time 17.5 h)?
The value was 1.1062.

What about the “absorbance (OD 600 nm)” value ([2]; Table 3 test, time 18 h) of the same molecule?
Its value is 1.1201.

What about the “absorbance (OD 600 nm)” value ([2]; Table 3 test, time 18.5 h) of the same molecule?
Its value is 1.1494.

And the “absorbance (OD 600 nm)” value ([2]; Table 3 test, time 19 h)?
Its value is 1.1729.

What about the “absorbance (OD 600 nm)” value ([2]; Table 3 test, time 19.5 h) of the same molecule?
Its value is 1.1942.

What about the “absorbance (OD 600 nm)” value ([2]; Table 3 test, time 20 h) of the same molecule?
The value was 1.2233.

What about the “absorbance (OD 600 nm)” value ([2]; Table 3 test, time 20.5 h) of the same molecule?
The value was 1.2352.

And the “absorbance (OD 600 nm)” value ([2]; Table 3 test, time 21 h)?
The value was 1.27.

And the “absorbance (OD 600 nm)” value ([2]; Table 3 test, time 21.5 h)?
Its value is 1.2882.

And the “absorbance (OD 600 nm)” value ([2]; Table 3 test, time 22 h)?
The value was 1.2935.

And the “absorbance (OD 600 nm)” value ([2]; Table 3 test, time 22.5 h)?
Its value is 1.312.

What about the “absorbance (OD 600 nm)” value ([2]; Table 3 test, time 23 h) of the same molecule?
Its value is 1.3311.

And the “absorbance (OD 600 nm)” value ([2]; Table 3 test, time 23.5 h)?
Its value is 1.3389.

What about the “absorbance (OD 600 nm)” value ([2]; Table 3 test, time 24 h) of the same molecule?
The value was 1.3477.

And the “absorbance (OD 600 nm)” value ([2]; Table 4 further test, time 0 h)?
Its value is 0.358.

What about the “absorbance (OD 600 nm)” value ([2]; Table 4 further test, time 0.5 h) of the same molecule?
Its value is 0.3615.

And the “absorbance (OD 600 nm)” value ([2]; Table 4 further test, time 1 h)?
The value was 0.3671.

And the “absorbance (OD 600 nm)” value ([2]; Table 4 further test, time 1.5 h)?
Its value is 0.3772.

And the “absorbance (OD 600 nm)” value ([2]; Table 4 further test, time 2 h)?
The value was 0.3899.

And the “absorbance (OD 600 nm)” value ([2]; Table 4 further test, time 2.5 h)?
Its value is 0.407.

And the “absorbance (OD 600 nm)” value ([2]; Table 4 further test, time 3 h)?
The value was 0.4301.

And the “absorbance (OD 600 nm)” value ([2]; Table 4 further test, time 3.5 h)?
The value was 0.4552.

And the “absorbance (OD 600 nm)” value ([2]; Table 4 further test, time 4 h)?
Its value is 0.4845.

What about the “absorbance (OD 600 nm)” value ([2]; Table 4 further test, time 4.5 h) of the same molecule?
The value was 0.5215.

And the “absorbance (OD 600 nm)” value ([2]; Table 4 further test, time 5 h)?
Its value is 0.5712.

And the “absorbance (OD 600 nm)” value ([2]; Table 4 further test, time 5.5 h)?
The value was 0.6208.

What about the “absorbance (OD 600 nm)” value ([2]; Table 4 further test, time 6 h) of the same molecule?
The value was 0.6769.

And the “absorbance (OD 600 nm)” value ([2]; Table 4 further test, time 6.5 h)?
Its value is 0.7519.

What about the “absorbance (OD 600 nm)” value ([2]; Table 4 further test, time 7 h) of the same molecule?
The value was 0.824.

What about the “absorbance (OD 600 nm)” value ([2]; Table 4 further test, time 7.5 h) of the same molecule?
Its value is 0.8944.

And the “absorbance (OD 600 nm)” value ([2]; Table 4 further test, time 8 h)?
Its value is 0.9606.

And the “absorbance (OD 600 nm)” value ([2]; Table 4 further test, time 8.5 h)?
The value was 1.0277.

And the “absorbance (OD 600 nm)” value ([2]; Table 4 further test, time 9 h)?
The value was 1.0871.

What about the “absorbance (OD 600 nm)” value ([2]; Table 4 further test, time 9.5 h) of the same molecule?
The value was 1.1209.

What about the “absorbance (OD 600 nm)” value ([2]; Table 4 further test, time 10 h) of the same molecule?
The value was 1.1556.

What about the “absorbance (OD 600 nm)” value ([2]; Table 4 further test, time 10.5 h) of the same molecule?
The value was 1.189.

What about the “absorbance (OD 600 nm)” value ([2]; Table 4 further test, time 11 h) of the same molecule?
The value was 1.2217.

And the “absorbance (OD 600 nm)” value ([2]; Table 4 further test, time 11.5 h)?
The value was 1.2528.

And the “absorbance (OD 600 nm)” value ([2]; Table 4 further test, time 12 h)?
The value was 1.2826.

What about the “absorbance (OD 600 nm)” value ([2]; Table 4 further test, time 12.5 h) of the same molecule?
The value was 1.3101.

And the “absorbance (OD 600 nm)” value ([2]; Table 4 further test, time 13 h)?
The value was 1.3368.

And the “absorbance (OD 600 nm)” value ([2]; Table 4 further test, time 13.5 h)?
The value was 1.3586.

And the “absorbance (OD 600 nm)” value ([2]; Table 4 further test, time 14 h)?
The value was 1.3745.

And the “absorbance (OD 600 nm)” value ([2]; Table 4 further test, time 14.5 h)?
The value was 1.388.

And the “absorbance (OD 600 nm)” value ([2]; Table 4 further test, time 15 h)?
The value was 1.4068.

And the “absorbance (OD 600 nm)” value ([2]; Table 4 further test, time 15.5 h)?
The value was 1.4166.

And the “absorbance (OD 600 nm)” value ([2]; Table 4 further test, time 16 h)?
Its value is 1.43.

What about the “absorbance (OD 600 nm)” value ([2]; Table 4 further test, time 16.5 h) of the same molecule?
Its value is 1.4441.

What about the “absorbance (OD 600 nm)” value ([2]; Table 4 further test, time 17 h) of the same molecule?
The value was 1.4486.

And the “absorbance (OD 600 nm)” value ([2]; Table 4 further test, time 17.5 h)?
Its value is 1.4526.

What about the “absorbance (OD 600 nm)” value ([2]; Table 4 further test, time 18 h) of the same molecule?
Its value is 1.4654.

What about the “absorbance (OD 600 nm)” value ([2]; Table 4 further test, time 18.5 h) of the same molecule?
The value was 1.4724.

And the “absorbance (OD 600 nm)” value ([2]; Table 4 further test, time 19 h)?
Its value is 1.472.

What about the “absorbance (OD 600 nm)” value ([2]; Table 4 further test, time 19.5 h) of the same molecule?
The value was 1.4796.

What about the “absorbance (OD 600 nm)” value ([2]; Table 4 further test, time 20 h) of the same molecule?
Its value is 1.4864.

And the “absorbance (OD 600 nm)” value ([2]; Table 4 further test, time 20.5 h)?
The value was 1.491.

And the “absorbance (OD 600 nm)” value ([2]; Table 4 further test, time 21 h)?
The value was 1.4946.

What about the “absorbance (OD 600 nm)” value ([2]; Table 4 further test, time 21.5 h) of the same molecule?
Its value is 1.4988.

And the “absorbance (OD 600 nm)” value ([2]; Table 4 further test, time 22 h)?
The value was 1.5015.

What about the “absorbance (OD 600 nm)” value ([2]; Table 4 further test, time 22.5 h) of the same molecule?
Its value is 1.5046.

What about the “absorbance (OD 600 nm)” value ([2]; Table 4 further test, time 23 h) of the same molecule?
The value was 1.5061.

And the “absorbance (OD 600 nm)” value ([2]; Table 4 further test, time 23.5 h)?
The value was 1.5092.

And the “absorbance (OD 600 nm)” value ([2]; Table 4 further test, time 24 h)?
Its value is 1.5092.
